SMILES strings stand for the structures. Structures can show the parent of a compound that is named as a salt. Where two headings read alike, the source gives them in different places.

The results in this text go back to US6271238A, “Acetamide derivatives and protease inhibitors” (Nippon Kayaku Kabushiki Kaisha, priority 1996, dated 2001).

What all share (type): biochemical
In assay [1] the target is T1, rat chymase (Rattus norvegicus, UniProt P09650).
T1 construct: 50 g rat tongue was finely divided by scissors and a scalpel; from tissue; host or cells: rat tongue
T1 sequence (P09650 21-260): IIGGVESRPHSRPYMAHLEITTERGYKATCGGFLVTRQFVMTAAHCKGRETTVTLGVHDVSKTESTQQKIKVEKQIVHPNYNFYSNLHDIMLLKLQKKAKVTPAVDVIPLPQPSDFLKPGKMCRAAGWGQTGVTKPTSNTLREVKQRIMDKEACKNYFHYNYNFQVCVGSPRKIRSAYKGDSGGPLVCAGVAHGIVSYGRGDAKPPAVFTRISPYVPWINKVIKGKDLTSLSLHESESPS
As to the kind of experiment: Inhibitory activity on rat chymase (synthetic substrate). The procedure: In the present invention, chymase was purified by the methods described in these literatures, and the present compounds were examined for inhibitory activity on chymase, inhibitory action on activation of mast cells and eosinophils, and pharmacological action in animals. Hereinafter, specific methods are described. […] 50 g rat tongue was finely divided by scissors and a scalpel, suspended in 0.1 M phosphate buffer (pH 8.0), and disrupted by a Polytron homogenizer for 5 minutes to prepare a crude chymase enzyme solution. […] The supernatant was applied to an octyl Sepharose 4B column (40×100 mm) previously equilibrated with 0.1 M phosphate buffer (pH 8.0) containing 2 M sodium chloride and 5% ammonium sulfate, and the protein was eluted with a linear concentration gradient of from 2 M to 0 M sodium chloride. […] (D) Measurement of inhibitory activity on chymase (a) Measurement using the synthetic substrate The synthetic chymase substrate was used for measurement of the inhibitory activity on the rat chymase as a subtrate, and the fluorescence of formed aminomethylcoumarin after reaction was measured by a spectrophotometer. […] The test was conducted several times. Chymase was prepared for each test in the manner described above. The compounds examined were compounds prepared in the above-described examples. […] Succinyl leucyl leucyl valyl tyrosyl methylcoumarylamide (for rat […] angiotensin I (for human and dog chymase)

In assay [2] the target is T2, Human elastase (Homo sapiens, UniProt P08246).
T2 sequence (P08246 30-247 limits assumed): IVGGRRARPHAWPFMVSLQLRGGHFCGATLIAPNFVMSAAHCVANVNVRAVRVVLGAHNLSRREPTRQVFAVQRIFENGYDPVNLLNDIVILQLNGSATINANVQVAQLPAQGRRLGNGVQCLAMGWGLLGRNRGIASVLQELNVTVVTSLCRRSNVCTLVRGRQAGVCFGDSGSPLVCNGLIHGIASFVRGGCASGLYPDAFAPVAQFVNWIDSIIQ
Nature of the assay: Inhibitory activity on proteases other than chymase: human elastase. Particulars: succinyl alanyl propyl alanyl methylcoumarylamide substrate; read-out: 50% Inhibitory concentration toward Human elastase. The procedure:
(§1) (E) Measurement of inhibitory activity on proteases other than chymase
(§2) The inhibitory activity of the present compounds on human elastase, human cathepsin G, human urokinase, human thrombin, human plasmin, and human factor Xa was determined using their corresponding synthetic substrates in the same manner as for chymase. All the above proteases were those commercially available from Boehringer Mannheim or purified by a combination of known methods. The synthetic substrates were those produced by Peptide Renkyusho. The synthetic substrates for the respective proteases are as follows.
Human elastase Succinyl alanyl propyl alanyl methylcoumarylamide
(§3) The test was conducted several times. Chymase was prepared for each test in the manner described above. The compounds examined were compounds prepared in the above-described examples.

For assay [3], the target named is Human urokinase (Homo sapiens, UniProt P00749). As to the kind of experiment: Inhibitory activity on proteases other than chymase: human urokinase. Particulars: pyridyl glycyl arginyl methylcoumarylamide substrate; read-out: 50% Inhibitory concentration toward Human urokinase. The procedure:
as §2, with “(E) Measurement of inhibitory activity on proteases other than chymase The inhibitory” for “The inhibitory”, “as follows. |Human urokinase Pyridyl glycyl arginyl methylcoumarylamide The test was conducted several times. Chymase was prepared for each test in the manner described above. The compounds examined were compounds prepared in the above-described examples.” for “as follows.”

Assay [4] deals with T3, Human factor Xa (Homo sapiens, UniProt P00742).
T3 construct: human factor Xa
Nature of the assay: Inhibitory activity on proteases other than chymase: human factor Xa. Here is the method: as §1, §2
Human factor Xa Phenylmethyloxycarbonyl pyridyl glycyl arginyl
as §3

Where [5] appears, read: substrate succinyl leucyl leucyl valyl tyrosyl methylcoumarylamide, pH 8.0, 37° C., 15 min, read-out: Rat Chymase (IC50: nM), 50% inhibitory concentration.

T3 sequence (P00742 235-488 limits assumed): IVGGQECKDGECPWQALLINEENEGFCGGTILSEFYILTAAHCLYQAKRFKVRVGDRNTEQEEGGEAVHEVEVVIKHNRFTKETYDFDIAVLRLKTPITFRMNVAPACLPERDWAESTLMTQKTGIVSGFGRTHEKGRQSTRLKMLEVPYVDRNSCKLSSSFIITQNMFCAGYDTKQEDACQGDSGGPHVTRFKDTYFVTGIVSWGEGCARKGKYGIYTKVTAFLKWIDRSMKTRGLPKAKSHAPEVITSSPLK
T3 sequence (P00742 41-179 partner limits assumed): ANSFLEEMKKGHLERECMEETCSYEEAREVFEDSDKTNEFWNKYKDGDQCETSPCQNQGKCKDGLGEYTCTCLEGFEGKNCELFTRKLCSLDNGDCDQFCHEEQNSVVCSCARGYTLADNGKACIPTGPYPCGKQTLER

In the case of `Nc1cnc(-c2ccccc2)n(CC(=O)NC(Cc2ccccc2)C(=O)C(=O)CCCc2ccccc2)c1=O` (stereo not shown) [Compound 40], the IC50 is 46 nM in assay [1] (setting [5]), 1.9 µM in assay [2], more than 10 µM in assay [3] and more than 10 µM in assay [4].
Take `CCCCC(=O)C(=O)C(Cc1ccccc1)NC(=O)Cn1c(-c2ccccc2)ncc(N)c1=O` (stereo not shown) [Compound 44]: the IC50 in assay [1] (setting [5]) amounted to 79 nM.
`CC(=O)C(=O)C(Cc1cccc(F)c1)NC(=O)Cn1c(-c2ccccc2)ncc(N)c1=O` (stereo not shown) [Compound 52, 2-(5-Amino-6-oxo-2-phenyl-1,6-dihydropyrimidine-1-yl)-N-{1-(3-fluorophenyl)methyl-2,3-dioxo}butylacetamide]: the IC50 is 190 nM in assay [1] (setting [5]), more than 10 µM in assay [2], more than 10 µM in assay [3] and more than 10 µM in assay [4].
Regarding `CCOC(=O)CCCC(=O)C(=O)C(Cc1cccc(F)c1)NC(=O)Cn1c(-c2ccccc2)ncc(N)c1=O` (stereo not shown) [Compound 54], the IC50 in assay [1] (setting [5]) came out at 45 nM.
As to `CC(C)(C)OC(=O)Nc1cnc(-c2ccccc2)n(CC(=O)NC(Cc2ccccc2)C(=O)C(=O)CCCn2ccccc2=O)c1=O` (stereo not shown) [Compound 72, 2-(5-t-Butyloxycarbonylamino-6-oxo-2-phenyl-1,6-dihydropyrimidine-1-yl)-N-{2,3-dioxo-6-(2-oxo-1,2-dihydropyridine-1-yl)-1-phenylmethyl}hexylacetamide], the IC50 in assay [1] (setting [5]) was 2100 nM; in assay [2], 5.5 µM; in assay [3], more than 10 µM; in assay [4], more than 10 µM.
`Nc1cnc(-c2ccccc2)n(CC(=O)NC(Cc2ccccc2)C(=O)C(=O)CCCn2ccccc2=O)c1=O` (stereo not shown) [Compound 73, 2-(5-Amino-6-oxo-2-phenyl-1,6-dihydropyrimidine-1-yl)-N-{2,3-dioxo-1-phenylmethyl-6-(2-oxo-1,2-dihydropyridine-1-yl)}hexylacetamide hydrochloride]: the IC50 in assay [1] (setting [5]) was determined as 550 nM.
For `CC(C)(C)OC(=O)Nc1cnc(-c2ccccc2)n(CC(=O)NC(Cc2ccccc2)C(=O)C(=O)CCCOc2ccccn2)c1=O` (stereo not shown) [Compound 74, 2-(5-t-Butyloxycarbonylamino-6-oxo-2-phenyl-1,6-dihydropyrimidine-1-yl)-N-{2,3-dioxo-6-(2-pyridyloxy)-1-phenylmethyl}hexylacetamide], the IC50 in assay [1] (setting [5]) was 510 nM; in assay [2], 6 µM; in assay [3] it was more than 10 µM; in assay [4] it was more than 10 µM.
Regarding `O=CNc1cnc(-c2ccccc2)n(CC(=O)NC(Cc2ccccc2)C(=O)C(=O)CCCOc2ccccn2)c1=O` (stereo not shown) [Compound 79, 2-(5-Formylamino-6-oxo-2-phenyl-1,6-dihydropyrimidine-1-yl)-N-{2,3-dioxo-1-phenylmethyl-6-(2-pyridyloxy)}hexylacetamide], the IC50 was 19 nM in assay [1] (setting [5]), more than 10 µM in assay [2], more than 10 µM in assay [3] and more than 10 µM in assay [4].
For `CC(=O)Nc1cnc(-c2ccccc2)n(CC(=O)NC(Cc2ccccc2)C(=O)C(=O)CCCOc2ccccn2)c1=O` (stereo not shown) [Compound 80, 2-(5-Acetylamino-6-oxo-2-phenyl-1,6-dihydropyrimidine1-yl)-N-{2,3-dioxo-1-phenylmethyl-6-(-2-pyridyloxy)}hexyl-acetamide], the IC50 in assay [1] (setting [5]) is 52 nM; in assay [2] it was 2.1 µM; in assay [3], more than 10 µM; in assay [4], more than 10 µM.
As to `O=C(Cn1c(-c2ccccc2)ncc(NS(=O)(=O)NCc2ccccc2)c1=O)NC(Cc1ccccc1)C(=O)C(=O)CCCOc1ccccn1` (stereo not shown) [Compound 82, 2-(5-Benzylaminosulfonylamino-6-oxo-2-phenyl-1,6-dihydropyrimidine-1-yl)-N-{2,3-dioxo-1-phenylmethyl-6-(2-pyridyloxy)}hexylacetamide], the IC50 in assay [1] is 19 nM; in assay [2], 4 µM; in assay [3], more than 10 µM; in assay [4] it was more than 10 µM.
